Data published in the Deep4Chem optical property database.

Test: solvent given as SMILES

## C[Si]1(C)O[Si](C)(C)c2cc3c(-c4ccccc4)c4ccccc4nc3cc21
In ClCCl
  absorption maximum: 368 nm

## COc1ccc(OC)cc1
In C1CCCCC1
  absorption maximum: 286.2 nm

## CC(C)(C)c1ccc2oc(-c3ccc(-c4nc5cc(C(C)(C)C)ccc5o4)s3)nc2c1
In C1CCCCC1
  absorption maximum: 372 nm
In C1CCOC1
  absorption maximum: 374 nm
In CC1CCCCC1
  absorption maximum: 373 nm
In CC#N
  absorption maximum: 371 nm
In CCCCO
  absorption maximum: 375 nm
In CCO
  absorption maximum: 373 nm
In CN(C)C=O
  absorption maximum: 374 nm
In Cc1ccccc1
  absorption maximum: 376 nm
In Clc1ccccc1Cl
  absorption maximum: 379 nm
In c1ccccc1
  absorption maximum: 377 nm

## c1ccc(-c2ccc(-c3ccc(N(c4ccccc4)c4ccccc4)cc3)c3nsnc23)cc1
In C1CCOC1
  absorption maximum: 437 nm
In CC(C)=O
  absorption maximum: 424 nm
In CCCCCC
  absorption maximum: 438 nm
In CCOCC
  absorption maximum: 435 nm

## CC(=O)OC[C@@H]1O[C@H](N2C=CC3=Nc4nc(C)[n+](C)cc4CN3C2=O)[C@@H](O)[C@H]1O
In CC#N
  absorption maximum: 386 nm
In CCO
  absorption maximum: 388 nm
In O
  absorption maximum: 382 nm

## c1ccc(-c2ccc(-c3ccc(-c4cc(-c5ccc(-c6ccc(-c7ccccc7)cc6)cc5)cc(-c5ccc(-c6ccc(-c7ccccc7)cc6)cc5)c4)cc3)cc2)cc1
In C1COCCO1
  absorption maximum: 306.5 nm

## COC(=O)C[C@H](Cc1c[nH]c2ccccc12)NC(=O)[C@H](CC(=O)N[C@@H](CC1=CCc2ccccc21)C(=O)OC)NC(=O)[C@H](Cc1c[nH]c2ccccc12)NC(=O)OC(C)(C)C
In CC#N
  absorption maximum: 280 nm
In CCOC(C)=O
  absorption maximum: 280 nm
In CO
  absorption maximum: 280 nm

## C[Si](C)(C)c1ccc2ccc3c([Si](C)(C)C)ccc4ccc1c2c43
In CCCCCC
  absorption maximum: 350 nm
In CO
  absorption maximum: 349 nm
In ClCCl
  absorption maximum: 352 nm

## CC(C)c1cccc(C(C)C)c1N1C(=O)c2cc(Cl)c3c4c(Cl)cc5c6c(cc(Cl)c(c7c(Cl)cc(c2c37)C1=O)c64)C(=O)N(c1c(C(C)C)cccc1C(C)C)C5=O
In Cc1ccccc1
  absorption maximum: 523 nm

## CC(C)(C)c1ccc2c(c1)c1cc(C(C)(C)C)ccc1n2-c1ccc(N(c2ccc(-c3ccc(N(c4ccc(-n5c6ccc(C(C)(C)C)cc6c6cc(C(C)(C)C)ccc65)cc4)c4ccc(-n5c6ccc(C(C)(C)C)cc6c6cc(C(C)(C)C)ccc65)cc4)cc3)cc2)c2ccc(-n3c4ccc(C(C)(C)C)cc4c4cc(C(C)(C)C)ccc43)cc2)cc1
In ClCCl
  absorption maximum: 349 nm

## N#CC1=C(c2ccc(-c3cccs3)s2)CCC1
In C1CCOC1
  absorption maximum: 364 nm
In CC#N
  absorption maximum: 362 nm
In CCCCCC
  absorption maximum: 360 nm
In CCO
  absorption maximum: 366 nm
In OCCOCCO
  absorption maximum: 367 nm
In c1ccncc1
  absorption maximum: 368 nm

## Nc1ccc2c(c1)NC(=O)CC(=O)N2
In CS(C)=O
  absorption maximum: 318 nm

## CCCN1c2ccccc2Sc2cc(/C=C\c3cc(=O)oc4cc(C)ccc34)ccc21
In ClC(Cl)Cl
  absorption maximum: 424 nm

## COc1ccc(C2=C(c3ccc(OC)cc3)C(C)(C)c3cc(OC)ccc32)cc1
In C1CCCCC1
  absorption maximum: 296 nm

## ClP1(Cl)=N[P@@](Cl)(Oc2ccc3ccc4cccc5ccc2c3c45)=N[P@@](Cl)(Oc2ccc3ccc4cccc5ccc2c3c45)=N1
In ClCCl
  absorption maximum: 343 nm

## CCCN1c2ccc(C3=C4C=CC=[N+]4[B-](F)(F)n4cccc43)cc2Sc2cc(C3=C4C=CC=[N+]4[B-](F)(F)n4cccc43)ccc21
In ClCCl
  absorption maximum: 500 nm

## CCN1CCN(c2ccc(/N=N/c3cc([N+](=O)[O-])cc([N+](=O)[O-])c3)cc2)CC1
In CCOC(C)=O
  absorption maximum: 454 nm

## CCCC[Si](C)(C)c1cccc2ccccc12
In C1CCCCC1
  absorption maximum: 294 nm

## Cn1cc(-c2nc3ccccc3nc2C#Cc2ccc(C#N)cc2)c2ccccc21
In ClCCl
  absorption maximum: 418 nm

## c1ccc(/C(=C(\c2ccccc2)c2cc(-c3ccc(-c4ccccc4)cc3)ccc2-c2ccc(-c3ccccc3)cc2)c2cc(-c3ccc(-c4ccccc4)cc3)ccc2-c2ccc(-c3ccccc3)cc2)cc1
In C1CCOC1
  absorption maximum: 302 nm

## c1ccc2c(c1)ccc1ccc3c(c12)-c1c(ccc2ccc4ccccc4c12)C3
In ClCCl
  absorption maximum: 400 nm

## CC(C)c1cccc(C(C)C)c1N1C(c2ccccc2)=Cc2ccc3ccccc3[n+]2[B-]1(F)F
In ClCCl
  absorption maximum: 447 nm

## CCCCCN(c1ccccc1)c1ccc2c(c1)C(CC)(CC)c1cc(/C=C/c3ccc(/C=C(\C#N)C(=O)O)s3)ccc1-2
In C1CCOC1
  absorption maximum: 456 nm
In C1COCCO1
  absorption maximum: 464 nm
In CC#N
  absorption maximum: 430 nm
In CC(C)=O
  absorption maximum: 464 nm
In CCOC(C)=O
  absorption maximum: 460 nm
In CN(C)C=O
  absorption maximum: 418 nm
In CS(C)=O
  absorption maximum: 430 nm
In ClCCl
  absorption maximum: 470 nm

## COc1ccc2c(c1)CCC1=C(C#Cc3cc4ccccc4c4ccccc34)O[B-](F)(F)[O+]=C12
In ClCCl
  absorption maximum: 465 nm

## C[n+]1ccc(/C=C/c2ccc(N(c3ccccc3)c3ccc(/C=C/c4cc[n+](C)cn4)cc3)cc2)nc1
In CS(C)=O
  absorption maximum: 500 nm
In O
  absorption maximum: 525 nm
In OCC(O)CO
  absorption maximum: 560 nm

## N#CCc1ccccc1-c1cc2ccccc2oc1=O
In ClC(Cl)Cl
  absorption maximum: 318 nm

## COC(=O)C1=C(C(=O)OC)C2(c3ccccc3-c3c(C(=O)OC)cccc32)[C@@H](c2ccc(Cl)cc2)C=C2c3cc(OC)c(OC)cc3CCN21 (some centres undefined)
In ClCCl
  absorption maximum: 311 nm

## Cc1ccc(/C=C/C(F)(F)F)c(N)c1
In C1CCOC1
  absorption maximum: 346 nm

## CCC(C)(C)c1ccc2c(c1)C(CC)(CC)c1cc(-c3ccc4c(c3)C(CC)(CC)c3cc(C(C)(C)CC)ccc3-4)ccc1-2
In C1CCCCC1
  absorption maximum: 331 nm

## CCOC(=O)c1cc(C(=O)OCC)c2cc(N)ccc2n1
In CCO
  absorption maximum: 421 nm

## O=P1(c2ccccc2)C(c2ccc(N(c3ccccc3)c3ccccc3)cc2)=Cc2ccccc21 (centres undefined)
In C1CCOC1
  absorption maximum: 408 nm
In CC#N
  absorption maximum: 407 nm
In CN(C)C=O
  absorption maximum: 410 nm
In Cc1ccccc1
  absorption maximum: 413 nm
In ClC(Cl)Cl
  absorption maximum: 418 nm
In ClCCl
  absorption maximum: 415 nm

## Cc1cc(C)c(-c2cc(-c3c(C)cc(C)cc3C)c3ccc4c(-c5c(C)cc(C)cc5C)cc(-c5c(C)cc(C)cc5C)c5ccc2c3c54)c(C)c1
In ClCCl
  absorption maximum: 363 nm

## c1ccc(-c2c3ccccc3c(-c3ccccc3)c3cc4ccccc4cc23)cc1
In ClCCl
  absorption maximum: 493 nm

## CC(C)[Si](C#Cc1c2nsnc2c(C#C[Si](C(C)C)(C(C)C)C(C)C)c2nc3c(ccc4ccccc43)nc12)(C(C)C)C(C)C
In CCCCCC
  absorption maximum: 607 nm

## CC(C)(C)C#Cc1ccc2c3cccc4cccc(c5cccc1c52)c43
In C1CCCCC1
  absorption maximum: 455 nm

## CCOC(=O)COc1ccc(/C=C/C2=C3c4ccccc4C(c4[nH]c(C)cc4C)=[N+]3[B-](F)(F)n3c(C)cc(C)c32)cc1
In C1CCOC1
  absorption maximum: 608 nm
In CC#N
  absorption maximum: 602 nm
In CCCCCC
  absorption maximum: 608 nm
In CO
  absorption maximum: 603 nm
In Cc1ccccc1
  absorption maximum: 614 nm
In ClCCl
  absorption maximum: 608 nm

## CCN1c2ccc(C3=CC(c4ccccc4)=[O+][B-](F)(F)O3)cc2Sc2cc(C3=CC(c4ccccc4)=[O+][B-](F)(F)O3)ccc21
In ClCCl
  absorption maximum: 525 nm

## CC(C)[Si](C#Cc1c2ccccc2c(C#C[Si](C(C)C)(C(C)C)C(C)C)c2nc3c(nc12)Cc1ccccc1-3)(C(C)C)C(C)C
In CCCCCC
  absorption maximum: 486 nm

## O=C([O-])c1ccc(C(=O)[O-])c2cc3ccccc3cc12
In CN(C)C=O
  absorption maximum: 396 nm

## Cc1cc(C)c(B2c3cc(C)ccc3N3c4ccc(C)cc4B(c4c(C)cc(C)cc4C)c4cc(C)cc2c43)c(C)c1
In ClCCl
  absorption maximum: 457 nm

## COc1ccc2cc(C#CC3=C4CCc5ccccc5C4=[O+][B-](F)(F)O3)ccc2c1
In ClCCl
  absorption maximum: 457 nm

## CCCCn1c2ccccc2c2ccc3c4cc(-c5ccc(C(F)(F)F)cc5)ccc4n(CCCC)c3c21
In ClC(Cl)Cl
  absorption maximum: 326 nm

## O=C1c2ccccc2-c2nc3ccccc3n21
In ClCCl
  absorption maximum: 340 nm

## Cc1ccc(C(=O)/N=c2\oc3cccc4c5c(-c6ccccc6)oc6cccc(c(c2-c2ccccc2)c34)c65)cc1
In ClC(Cl)Cl
  absorption maximum: 385 nm

## Cn1nc(-c2ccccc2)c2nc3cc(Cl)ccc3nc21
In C1CCCCC1
  absorption maximum: 428 nm
In C1CCOC1
  absorption maximum: 429 nm
In CC#N
  absorption maximum: 427 nm

## COc1ccc(-n2nc(C#N)c(N3CCOCC3)n2)cc1
In CC#N
  absorption maximum: 324 nm

## COc1ccc(-c2nc(/C(C#N)=C/c3ccc(Cl)cc3)sc2-c2ccc(OC)cc2)cc1
In CC#N
  absorption maximum: 394 nm

## CN(c1ccccc1)c1ccc(-c2ccc(-c3ccc(N(C)c4ccccc4)cc3)c3nc(-c4ccccc4)c(-c4ccccc4)nc23)cc1
In ClC(Cl)Cl
  absorption maximum: 476 nm

## CN(C)c1ccc(-c2nc3c(c4c2-c2ccc(C#N)cc2CC4)-c2ccc(C#N)cc2CC3)cc1
In C1CCOC1
  absorption maximum: 344 nm
In CC#N
  absorption maximum: 343 nm
In CCCCCC
  absorption maximum: 348 nm
In CCOC(C)=O
  absorption maximum: 333 nm
In CO
  absorption maximum: 332 nm
In CS(C)=O
  absorption maximum: 344 nm
In Cc1ccccc1
  absorption maximum: 344 nm
In ClCCl
  absorption maximum: 342 nm

## COc1ccc(C2=CC(c3ccccc3)=[N+]3C2=Nc2c(-c4ccc(OC)cc4)cc(-c4ccccc4)n2[B-]3(F)F)cc1
In Cc1ccccc1
  absorption maximum: 663 nm
In ClC(Cl)Cl
  absorption maximum: 664 nm

## N#Cc1nn(-c2ccccc2C(F)(F)F)nc1N1CCCC1
In CC#N
  absorption maximum: 326 nm

## CCOC(=O)/C=C/C1=C(c2ccc(C)cc2)C2=Nc3c(-c4ccc(C)cc4)c(Br)c(-c4ccc(C)cc4)n3[B-](F)(F)[N+]2=C1c1ccc(C)cc1
In ClC(Cl)Cl
  absorption maximum: 666 nm

## CCCCCCNC(=O)c1sc(-c2ccc(-c3cc(-c4ccc(C(C)(C)C)cc4)c(C(=O)NCCCCCC)s3)s2)cc1-c1ccc(C(C)(C)C)cc1
In ClCCl
  absorption maximum: 392 nm

## COc1ccc2c3ccc(OC)cc3n(-c3ccc(-c4nnc(-c5c(C)cc(C)cc5C)o4)cc3C)c2c1
In Cc1ccccc1
  absorption maximum: 319 nm

## COC(=O)c1ccc(/C=C2\C=C(c3ccc([N+](=O)[O-])cc3)N(CC(C)C)C2=O)cc1
In C1COCCO1
  absorption maximum: 442 nm

## C(=C\c1cc[n+](Cc2ccccc2)cc1)/c1cc[n+](Cc2ccccc2)cc1
In CC#N
  absorption maximum: 324 nm

## CC1=C(C#Cc2ccc([Si](c3ccccc3)(c3ccccc3)c3ccccc3)cc2)C(C)=[N+]2C1=C(c1ccccc1)c1c(C)c(C#Cc3ccc([Si](c4ccccc4)(c4ccccc4)c4ccccc4)cc3)c(C)n1[B-]2(F)F
In ClCCl
  absorption maximum: 575 nm
